Like-named read-outs stand apart in the source and are kept apart here. Peptide text beside a SMILES is read from it.

Broadly, the EC50 is the concentration giving half of the maximal effect.

The target of data set [1] is T1, human APJ receptor (hAPJ) (Homo sapiens, UniProt P35414).
T1 construct: expressed in transfected cells
T1 sequence (P35414 1-380): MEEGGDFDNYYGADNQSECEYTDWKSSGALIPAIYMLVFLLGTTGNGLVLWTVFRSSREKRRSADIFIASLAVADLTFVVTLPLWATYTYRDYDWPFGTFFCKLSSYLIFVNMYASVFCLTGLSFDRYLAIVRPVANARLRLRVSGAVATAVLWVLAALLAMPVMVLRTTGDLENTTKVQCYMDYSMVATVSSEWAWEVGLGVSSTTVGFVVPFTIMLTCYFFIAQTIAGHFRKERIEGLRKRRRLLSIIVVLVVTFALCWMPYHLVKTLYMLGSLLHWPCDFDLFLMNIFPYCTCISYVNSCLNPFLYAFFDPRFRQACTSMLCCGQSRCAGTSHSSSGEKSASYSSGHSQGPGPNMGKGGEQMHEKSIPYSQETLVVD
Description: HTRF cAMP assay: inhibition of NKH477-stimulated cAMP in HEK cells stably expressing hAPJ. It counts as cell-based. As to conditions: for % IA (cAMP inhibition, hAPJ HEK): intrinsic activity; for Ranking: composite class of EC50 (hAPJ), % IA and % histamine or formal (+) charge; for Emax: HEK293, read-out: % IA, bound stated; for inhibition of NKH477-stimulated increase in cAMP, dose dependent: concentration response curves, FIGS. 1 and 2, HEK cells stably expressing APJ. The method in brief: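 HEK cells stably expressing hAPJ, induced with 1 nG/mL doxycycline and seeded overnight at 40 k/well. cAMP read by HTRF competitive immunoassay using cryptate-labeled anti-cAMP antibody and d2-labeled cAMP.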

The subject of the next data set is rat peritoneal cells. Description: Ex vivo histamine release assay in rat peritoneal cells (vs. Compound 48/80). It counts as cell-based. From the text: More desirable pharmacological tolerability can include a decrease in an undesirable side effect (e.g., histamine release, an indicator of mast cell degranulation) without a significant loss in activity of the compound.
Screening of the variant G protein receptor compounds against a control compound for histamine release can be done following standard assays. The standard assay can include comparison to a control compound known to elicit a histamine response (e.g., 48/80 having CAS No. 94724-12-6). Such an assay using rat peritoneal cells is described herein for the APJ compounds.
Test compounds were assayed in the ex vivo histamine release assay using a 3-point dose response. Concentrations of total histamine contained in the cells is used to correct for variability in the numbers of mast cells in the lavage per well.
Resident peritoneal cells were harvested from naïve Sprague Dawley rats (male 200-300 gr, Charles River). Rats were euthanized by CO2 asphyxiation and a skin incision was made along the middle-line of the abdomen. Thirty milliliters of HBSS (HyClone, cat#SH 30268.01) containing 20 mM HEPES and 0.2% BSA (heretofore Assay Buffer) were injected intraperitoneally using a 30 mL syringe with the attached 18 gauge needle. The abdomen was gently lavaged for 1-2 min and 7-10 milliliters of the peritoneal lavage were carefully aspirated. Cell count in the peritoneal lavage was determined using Cellometer Auto T4 (Nexcelom Bioscience). The peritoneal cell count was adjusted to […] cells/mL in Assay Buffer. Rat peritoneal cells were kept at room temperature before and during the assay.
For the 10-point assay, 3-fold serial dilutions were prepared for each test compound in 100% DMSO in 96-well plates (Greiner Bio One, Ref#651261)—from 100 μM down to […]. For the 3-point assay, 10-fold serial dilutions were prepared in 100% DMSO at 100 μM, 10 μM and 1 μM concentrations. From this plate, 5 μL of compound were transferred to a new plate containing 45 μL Assay Buffer to generate a compound plate with 10× final concentrations in 10% DMSO with Assay Buffer. In the final plates, column 11 contained 1% DMSO for the low-histamine-releasing control.
Suspensions of the rat peritoneal cells (90 μL of 2.75×10^5 cells/mL; →25,000 cells per well) were introduced into each well of a new 96-well microtiter plate (Greiner Bio One, Ref#651261) and 10 μL aliquots of the serially diluted compounds were transferred to the cells in each well. The microtiter plate was incubated for 30 min at room temperature. Following incubation cells were spun down (500 rpm, 7 min) and supernatants were collected for further analysis. Supernatants were diluted 6 times with the assay buffer (15 μL to 75 μL, for 90 μL total) and released histamine content was determined using HTRF® Histamine assay kit (CisBio, cat#62HTMPEB). To measure the total histamine in each well, cells were lysed by addition of 15 μL 5% TritonX-100 to each well followed by incubation for 15 minutes. The plates were then spun at 3000 rpm for 5 minutes, and 10 μL of supernatant were diluted 9-fold in assay buffer (10 μL to 80 μL for 90 μL total) to make the “total” histamine plate. Histamine content was measured as described above for the “released” histamine values.
The standard positive control was Compound 48/80 (Enzo Life Sciences), a oligomeric polymer mixture produced by the condensation of N-methyl-p-methoxyphenethylamine with formaldehyde. The trimer is the most abundant in the mixture Compound 48/80 is used to promote mast cell degranulation and activates G proteins by a mechanism analogous to that of mastoparan. […] See references: T. Higashijima et al., J. Biol., Chem., 265 14176 (1990); M. Mousli et al., FEBS Lett., 259 260 (1990); K. Gietzen et al., Biochim. Biophys. Acta, 736 109 (1983); K. Gietzen, Biochem. J., 1983 216 611 and C. Bronner et al., Biochim. Biophys. Acta, 920 301(1987).

[2] abbreviates: EC50 (cAMP inhibition, hAPJ HEK), Table 6, hAPJ HEK cells, NKH477-stimulated cAMP.
The mark [3] stands for this setting: histamine release from rat peritoneal cells relative to Compound 48/80.
The mark [4] stands for this setting: Table 6, hAPJ HEK cells, NKH477-stimulated cAMP, read-out: EC50 (cAMP inhibition, hAPJ HEK).
Setting [5] is: HTRF cAMP Assay, per data of Table 6.
Setting [6] is: HTRF cAMP Assay, per data of Table 6, read-out: EC50 (hAPJ), inhibition of cAMP production, bound stated.

`CCCCCCCCCCCCCCCC(=O)N[C@H](C(=O)N[C@H](C(=O)N[C@@H](Cc1ccccc1)C(=O)N[C@@H](CCCNC(=N)N)C(=O)N[C@@H](CO)C(=O)N[C@@H](CO)C(=O)N[C@@H](CCC(=O)O)C(=O)N[C@H](C)C(=O)N[C@@H](CCCNC(=N)N)C(=O)N[C@@H](CCCNC(=N)N)C(=O)N[C@@H](CO)C(=O)N[C@@H](C)C(=O)N[C@@H](CC(=O)O)C(=O)N[C@H](C(=O)N[C@@H](Cc1ccccc1)C(=O)N[C@H](C(N)=O)[C@@H](C)CC)[C@@H](C)CC)C(C)C)[C@@H](C)O` [Compound 10] (HELM PEPTIDE1{[CCCCCCCCCCCCCCCC(=O)[*:2]].T.V.F.R.S.S.E.[dA].R.R.S.A.D.I.F.I.[am]}$$$$V2.0) returned an EC50 in data set [1] (setting [2]) of 39 nM. For the same compound, in data set [1] (Table 6, hAPJ HEK cells), the “% IA (cAMP inhibition, hAPJ HEK)” value is given as 106%. Moreover, the Ranking result in data set [1] was “** (EC50 25-50 nM (hAPJ), % IA 50-79% and either % histamine>35% or formal (+) charge>1)”. In the data set with rat peritoneal cells (setting [3]), the “Histamine (% vs. 48/80)” value amounted to 3%.

Regarding `CCCCCCCCCCCCCCCC(=O)N1CCC[C@H]1C(=O)N[C@@H](CCC(=O)O)C(=O)N[C@H](CCCCN)C(=O)N[C@@H](CCCNC(=N)N)C(=O)N[C@@H](CCCNC(=N)N)C(=O)N[C@@H](CO)C(=O)N[C@@H](C)C(=O)N[C@@H](CC(=O)O)C(=O)N[C@H](C(=O)N[C@@H](Cc1ccccc1)C(=O)N1CCC[C@H]1C(N)=O)[C@@H](C)CC` [Compound 4] (HELM PEPTIDE1{[CCCCCCCCCCCCCCCC(=O)[*:2]].P.E.[dK].R.R.S.A.D.I.F.P.[am]}$$$$V2.0), the EC50 in data set [1] (setting [4]) is 9 nM. Besides, the “% IA (cAMP inhibition, hAPJ HEK)” value in data set [1] (Table 6, hAPJ HEK cells) worked out at 48%. Moreover, the Ranking entry in data set [1] is reported as “* (EC50≦50 nM (hAPJ), % IA<50%)”. In addition, the “Histamine (% vs. 48/80)” value with rat peritoneal cells is recorded as -1%.

`CCCCCCCCCCCCCCCC(=O)N[C@H](C(=O)N[C@H](C(=O)N[C@@H](Cc1ccccc1)C(=O)N[C@@H](CCCNC(=N)N)C(=O)N[C@@H](CO)C(=O)N[C@@H](CO)C(=O)N[C@@H](CCC(=O)O)C(=O)N[C@H](CCCCN)C(=O)N[C@@H](CCCNC(=N)N)C(=O)N[C@@H](CCCNC(=N)N)C(=O)N[C@@H](CO)C(=O)N[C@@H](C)C(=O)N[C@@H](CC(=O)O)C(=O)N[C@@H](Cc1ccc(-c2ccccc2)cc1)C(=O)N[C@@H](Cc1ccccc1)C(=O)N[C@H](C(N)=O)[C@@H](C)CC)C(C)C)[C@@H](C)O` [Compound 11, TVFRSSEkRRSAD(Bip)FI] (HELM PEPTIDE1{[CCCCCCCCCCCCCCCC(=O)[*:2]].T.V.F.R.S.S.E.[dK].R.R.S.A.D.[O=C([C@H](Cc1ccc(-c2ccccc2)cc1)N[*:1])[*:2]].F.I.[am]}$$$$V2.0): the EC50 in data set [1] (setting [4]) amounted to 34 nM. In addition, the “% IA (cAMP inhibition, hAPJ HEK)” value in data set [1] (Table 6, hAPJ HEK cells) was found to be 76%. For the same compound, the Ranking entry in data set [1] is “** (EC50 25-50 nM (hAPJ), % IA 50-79% and either % histamine>35% or formal (+) charge>1)”. For the same compound, in the data set with rat peritoneal cells, the “Histamine (% vs. 48/80)” value was 8%.

On to `CCCCCCCCCCCCCCCC(=O)N1CCC[C@H]1C(=O)N[C@H](CCCCN)C(=O)N[C@@H](CCCNC(=N)N)C(=O)N[C@@H](CCCNC(=N)N)C(=O)N[C@@H](CO)C(=O)N[C@@H](C)C(=O)N[C@@H](CC(=O)O)C(=O)N[C@H](C(=O)N[C@@H](Cc1ccccc1)C(=O)N[C@H](C(=O)N1CCC[C@H]1C(N)=O)[C@@H](C)CC)[C@@H](C)CC` [Compound 30] (HELM PEPTIDE1{[CCCCCCCCCCCCCCCC(=O)[*:2]].P.[dK].R.R.S.A.D.I.F.I.P.[am]}$$$$V2.0), for which the Emax in data set [1] (setting [5]) is not below 80%. The EC50 in data set [1] (setting [6]) was not above 25 nM. Besides, the EC50 in data set [1] (setting [4]) was found to be 16 nM. In addition, the “% IA (cAMP inhibition, hAPJ HEK)” value in data set [1] (Table 6, hAPJ HEK cells) came to 86%. Besides, in data set [1], the Ranking result is “***** (EC50≦25 nM (hAPJ), % IA≧80% and either % histamine≦35% or formal (+) charge≦1)”; the “inhibition of NKH477-stimulated increase in cAMP, dose dependent” value is listed as “inhibited”. In addition, the “Histamine (% vs. 48/80)” value in the data set with rat peritoneal cells is on record as 34%.

On to `CCCCCCCCCCCCCCCC(=O)N[C@H](C(=O)N[C@H](C(=O)N[C@@H](Cc1ccccc1)C(=O)N[C@@H](CCCNC(=N)N)C(=O)N[C@@H](CO)C(=O)N[C@@H](CO)C(=O)N[C@@H](CCC(=O)O)C(=O)N[C@H](CCCN)C(=O)N[C@@H](CCCNC(=N)N)C(=O)N[C@@H](CCCNC(=N)N)C(=O)N[C@@H](CO)C(=O)N[C@@H](C)C(=O)N[C@@H](CC(=O)O)C(=O)N[C@H](C(=O)N[C@@H](Cc1ccccc1)C(=O)N[C@H](C(N)=O)[C@@H](C)CC)[C@@H](C)CC)C(C)C)[C@@H](C)O` [Compound 8] (HELM PEPTIDE1{[CCCCCCCCCCCCCCCC(=O)[*:2]].T.V.F.R.S.S.E.[NCCC[C@@H](N[*:1])C(=O)[*:2]].R.R.S.A.D.I.F.I.[am]}$$$$V2.0), for which, in data set [1] (setting [2]), the response was half-maximal at 14 nM (EC50). The same compound came in with an EC50 in data set [1] (EC50 (hAPJ), inhibition of cAMP production, bound stated, HTRF cAMP Assay, per data of Table 6) not above 25 nM. The Emax in data set [1] (setting [5]) is not below 80%. Also, in data set [1] (Table 6, hAPJ HEK cells), the “% IA (cAMP inhibition, hAPJ HEK)” value was determined as 99%. Besides, in data set [1], the Ranking result was “***** (EC50≦25 nM (hAPJ), % IA≧80% and either % histamine≦35% or formal (+) charge≦1)”; the “inhibition of NKH477-stimulated increase in cAMP, dose dependent” value is “inhibited”. In addition, the “Histamine (% vs. 48/80)” value in the data set with rat peritoneal cells (setting [3]) is 9%.

`CCCCCCCCCCCCCCCC(=O)N[C@H](C(=O)N[C@H](C(=O)N[C@@H](Cc1ccccc1)C(=O)N[C@@H](CCC(N)=O)C(=O)N[C@@H](CO)C(=O)N[C@@H](CCC(=O)O)C(=O)N[C@H](CCCCN)C(=O)N[C@@H](CCCNC(=N)N)C(=O)N[C@@H](CCCNC(=N)N)C(=O)N[C@@H](CO)C(=O)N[C@@H](C)C(=O)N[C@@H](CC(=O)O)C(=O)N[C@@H](Cc1ccccc1)C(=O)N[C@H](C(N)=O)[C@@H](C)CC)C(C)C)[C@@H](C)O` [Compound 16, TVFQSEkRRSADFI] (HELM PEPTIDE1{[CCCCCCCCCCCCCCCC(=O)[*:2]].T.V.F.Q.S.E.[dK].R.R.S.A.D.F.I.[am]}$$$$V2.0): in data set [1] (setting [5]), the Emax lay in the range of 50 to 79%. The EC50 in data set [1] (setting [6]) was 25 to 50 nM; in data set [1] (setting [4]), 10 nM. For the same compound, the “% IA (cAMP inhibition, hAPJ HEK)” value in data set [1] (Table 6, hAPJ HEK cells) was 78%. Moreover, the Ranking result in data set [1] is “*** (EC50 25-50 nM (hAPJ), % IA 50-79% and either % histamine≦35% or formal (+) charge≦1)”. Besides, the “Histamine (% vs. 48/80)” value in the data set with rat peritoneal cells is listed as 21%.

These data come from patent publication US20160159861A1, “APJ Receptor Compounds” (priority 2013, published 2016).
